Laboratory results: patent EP0293532A1, “6- or 7-beta-[2-[4-(substituted)-2,3-dioxopiperazin-1-yl) carbonylamino]-(substituted)acetamido]-penicillin and cephalosporin derivatives” (BEECHAM GROUP PLC, priority 1987, dated 1988)
Structures can show the parent of a compound that is named as a salt.

How the values were obtained:
Experiment in all cases: MIC by serial dilution in Iso-sensitest agar
Assay type in all cases: cell-based
E.Coli DC RTEM = details: Escherichia coli
Experimental: (§1) Minimum Inhibitory Concentration (MIC) values of compounds of the invention against a variety of organisms were determined by serial dilution in Iso-sensitest agar (from Oxoid Ltd. Basingstoke, England). The plates were inoculated with 10⁴ colony-forming units and incubated overnight at 37°C. The MIC values recorded in Table I were the lowest concentration of antibiotic to inhibit growth. Comparative data for Piperacillin (6β-[D-2-[(4-ethyl-2, 3-dioxopiperazin-1-yl)carbonylamino]-2-phenylacetamido] -penicillanic acid, sodium salt) and for the compound 6α-formamido-6β-[D-2-[(4-ethyl-2, 3-dioxopiperazin-1-yl)carbonylamino]-2- phenyl acetamido]-penicillanic acid, sodium salt (Compound A) disclosed in U.K. Patent GB-2107307B, are also given.

E.Coli JT 425 = details: Escherichia coli, JT425, 10⁴ colony-forming units, overnight at 37°C, lowest concentration to inhibit growth
Experimental: as §1

K.pneumoniae T767 = details: Klebsiella pneumoniae, 10⁴ colony-forming units, overnight at 37°C, lowest concentration to inhibit growth
Experimental: as §1

P.aerginosa 10662 = details: 10⁴ colony-forming units, overnight at 37°C, lowest concentration to inhibit growth
Experimental: as §1

P.aeruginosa K79961 = details: Pseudomonas aeruginosa, 10⁴ colony-forming units, overnight at 37°C, lowest concentration to inhibit growth
Experimental: as §1

S agalactiae 2798 = details: 10⁴ colony-forming units, overnight at 37°C, lowest concentration to inhibit growth
Experimental: as §1

Structure (SMILES) | MIC (E.Coli DC RTEM) [µg/mL] | MIC (E.Coli JT 425) [µg/mL] | MIC (K.pneumoniae T767) [µg/mL] | MIC (P.aerginosa 10662) [µg/mL] | MIC (P.aeruginosa K79961) [µg/mL] | MIC (S agalactiae 2798) [µg/mL]
CCN1CCN(C(=O)N[C@@H](C(=O)N[C@@H]2C(=O)N3[C@@H]2SC(C)(C)[C@@H]3C(=O)O)c2ccccc2)C(=O)C1=O [Piperacillin, 6β-[D-2-[(4-ethyl-2,3-dioxopiperazin-1-yl)carbonylamino]-2-phenylacetamido] -penicillanic acid, sodium salt, reference compound] | > 128 | 32 | 8 | 8 | 0.25 | 0.5
CC1(C)S[C@@H]2[C@H](NC(=O)[C@H](NC(=O)N3CCN(Cc4ccc(O)c(O)c4)C(=O)C3=O)c3ccccc3)C(=O)N2[C@H]1C(=O)O [Example 1, Sodium 6β-[D-2[[4-(3,4-Dihydroxybenzyl)-2,3-dioxopiperazin-1-yl]carbonylamino]-2-phenylacetamido]penicillanate] | 4 | 1 | 0.5 | 0.12 | < 0.06 | 0.25
CC1(C)S[C@H]2N(C(=O)[C@@]2(NC=O)NC(=O)[C@H](NC(=O)N2CCN(Cc3ccc(O)c(O)c3)C(=O)C2=O)c2ccccc2)[C@H]1C(=O)O [Example 2, Sodium 6β-[D-2[[4-(3,4-Dihydroxybenzyl)-2,3-dioxopiperazin-1-yl]carbonylamino]-2-phenylacetamido]-6α-formamidopenicillanate] | < 0.03 | < 0.03 | < 0.03 | 0.12 | 0.12 | 16
CO[C@@]1(NC(=O)[C@H](NC(=O)N2CCN(Cc3ccc(O)c(O)c3)C(=O)C2=O)c2ccccc2)C(=O)N2[C@@H](C(=O)O)C(C)(C)S[C@@H]21 [Example 3, Sodium 6β-[D-2-[[4-(3,4-Dihydroxybenzyl)-2,3-dioxopiperazin-1-yl]carbonylamino]-2-phenylacetamido]-6α-methoxypenicillanate] | 2 | 16 | 0.25 | 4 | 1 | > 128
CCN1CCN(C(=O)N[C@@H](C(=O)N[C@]2(NC=O)C(=O)N3[C@@H](C(=O)O)C(C)(C)S[C@@H]32)c2ccccc2)C(=O)C1=O [Compound A, 6α-formamido-6β-[D-2-[(4-ethyl-2,3-dioxopiperazin-1-yl)carbonylamino]-2-phenylacetamido]-penicillanic acid, sodium salt, reference compound] | 0.12 | 0.25 | 0.12 | 1 | 0.12 | 64
CC1(C)S[C@H]2N(C(=O)[C@@]2(NC=O)NC(=O)[C@H](NC(=O)N2CCN(Cc3cc(O)c(O)cn3)C(=O)C2=O)c2ccccc2)[C@H]1C(=O)O [Example 6, Sodium 6β-[D-2-[[4-(4,5-Dihydroxypyridin-2-ylmethyl)-2,3-dioxopiperazin-1-yl]carbonylamino]-2-phenylacetamido]-6α-formamidopenicillanate] | 0.06 | 0.25 | 0.06 | 1 | 0.3 | > 32
